Measurements published in BindingDB's records for doi:10.1016/s0960-894x(02)00140-3 (Aventis Pharma, 2002).
pIC50: −log10 of the molar value.

Molecular target: Proto-oncogene tyrosine-protein kinase Src (Homo sapiens, UniProt P12931)
Assay: ChEBML_202783
Method: The compound was evaluated for its binding affinity towards phosphotyrosine binding pocket of Src protein tyrosine kinase SH2 domain

Chain of Proto-oncogene tyrosine-protein kinase Src (P12931 2-536 limits assumed): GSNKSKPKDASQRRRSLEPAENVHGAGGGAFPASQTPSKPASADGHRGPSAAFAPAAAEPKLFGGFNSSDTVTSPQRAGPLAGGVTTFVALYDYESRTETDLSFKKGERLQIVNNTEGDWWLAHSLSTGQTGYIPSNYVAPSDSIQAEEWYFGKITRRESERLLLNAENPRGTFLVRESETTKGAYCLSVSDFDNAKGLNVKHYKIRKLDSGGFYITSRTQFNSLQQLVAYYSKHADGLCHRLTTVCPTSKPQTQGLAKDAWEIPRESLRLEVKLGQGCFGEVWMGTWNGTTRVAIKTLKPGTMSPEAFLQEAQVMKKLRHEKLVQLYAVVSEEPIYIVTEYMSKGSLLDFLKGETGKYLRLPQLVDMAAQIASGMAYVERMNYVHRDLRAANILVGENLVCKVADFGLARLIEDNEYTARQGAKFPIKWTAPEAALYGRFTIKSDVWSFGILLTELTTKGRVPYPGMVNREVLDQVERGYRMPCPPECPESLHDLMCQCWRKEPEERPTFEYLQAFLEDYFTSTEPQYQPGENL

In the case of `O=P(O)(O)C(O)c1cccc2ccccc12` (stereo unspecified) [[hydroxy(naphthalen-1-yl)methyl]phosphonic acid], the pIC50 was < 2.30.
